From ChEMBL document CHEMBL1157763, “Structure-activity relationships of fluorinated (E)-3-((6-methylpyridin-2-yl)ethynyl)cyclohex-2-enone-O-methyloxime (ABP688) derivatives and the discovery of a high affinity analogue as a potential candidate for imaging metabotropic glutamate recepors subtype 5 (mGluR5) with positron emission …” (J Med Chem, 2010)

Assays:
[1] = biological target: T1, Metabotropic glutamate receptor 5 (Rattus norvegicus, UniProt P31424); test: Displacement of [3H]M-MPEP from mGluR5 in Sprague-Dawley rat brain P2 membrane after 45 mins by beta counting; type: tissue-based
[2] = Lipophilicity, log P after 15 mins by shake-flask method; type: physicochemical; settings: octanol/water
[3] = biological target: T1, Metabotropic glutamate receptor 5; test: Binding affinity to mGluR5 ligand binding site 1 in Sprague-Dawley rat brain P2 membrane after 45 mins by gamma counting; type: tissue-based
[4] = biological target: T1, Metabotropic glutamate receptor 5; test: Binding affinity to mGluR5 ligand binding site 2 in Sprague-Dawley rat brain P2 membrane after 45 mins by gamma counting; type: tissue-based
[5] = biological target: Metabotropic glutamate receptor 5 (Rattus norvegicus) (UniProt P31424); test: Binding affinity to mGluR5 ligand binding site 1 in Sprague-Dawley rat brain P2 membrane assessed per mg of protein after 45 mins by gamma counting; type: tissue-based; settings: tested as the 18F-labelled form
[6] = biological target: Metabotropic glutamate receptor 5 (Rattus norvegicus) (UniProt P31424); test: Binding affinity to mGluR5 ligand binding site 2 in Sprague-Dawley rat brain P2 membrane assessed per mg of protein after 45 mins by gamma counting; type: tissue-based; settings: tested as the 18F-labelled form

T1 sequence (P31424 whole entry): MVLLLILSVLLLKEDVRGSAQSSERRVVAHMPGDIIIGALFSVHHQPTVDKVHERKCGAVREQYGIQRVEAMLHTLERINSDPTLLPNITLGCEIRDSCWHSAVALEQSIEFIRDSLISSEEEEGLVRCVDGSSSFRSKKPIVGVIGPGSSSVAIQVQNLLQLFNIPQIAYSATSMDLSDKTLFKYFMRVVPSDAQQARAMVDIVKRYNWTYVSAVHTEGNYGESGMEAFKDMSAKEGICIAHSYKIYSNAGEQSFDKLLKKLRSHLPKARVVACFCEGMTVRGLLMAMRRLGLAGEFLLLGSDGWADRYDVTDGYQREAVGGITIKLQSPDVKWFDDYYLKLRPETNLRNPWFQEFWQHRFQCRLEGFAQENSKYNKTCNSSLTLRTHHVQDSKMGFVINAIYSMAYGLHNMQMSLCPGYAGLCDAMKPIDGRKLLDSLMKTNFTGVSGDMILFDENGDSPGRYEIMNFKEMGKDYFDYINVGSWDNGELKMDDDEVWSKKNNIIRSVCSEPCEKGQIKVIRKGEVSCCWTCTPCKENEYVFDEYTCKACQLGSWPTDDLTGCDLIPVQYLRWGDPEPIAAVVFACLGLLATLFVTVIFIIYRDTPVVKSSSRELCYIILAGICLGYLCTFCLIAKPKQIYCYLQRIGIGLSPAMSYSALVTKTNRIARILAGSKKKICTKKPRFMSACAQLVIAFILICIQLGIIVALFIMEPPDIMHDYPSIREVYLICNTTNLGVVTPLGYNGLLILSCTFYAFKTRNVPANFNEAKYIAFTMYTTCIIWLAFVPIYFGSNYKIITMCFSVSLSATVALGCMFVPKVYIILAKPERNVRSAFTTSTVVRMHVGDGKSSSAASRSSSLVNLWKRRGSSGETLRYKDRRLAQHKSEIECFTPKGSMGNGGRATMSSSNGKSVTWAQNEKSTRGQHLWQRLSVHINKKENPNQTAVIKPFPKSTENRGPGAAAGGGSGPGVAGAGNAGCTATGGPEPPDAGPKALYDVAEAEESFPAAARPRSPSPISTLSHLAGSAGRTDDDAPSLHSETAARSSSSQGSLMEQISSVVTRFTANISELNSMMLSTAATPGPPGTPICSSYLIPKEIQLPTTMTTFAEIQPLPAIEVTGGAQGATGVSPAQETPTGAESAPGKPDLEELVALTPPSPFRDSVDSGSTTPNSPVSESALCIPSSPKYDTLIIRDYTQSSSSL
Sequence of Metabotropic glutamate receptor 5 (Rattus norvegicus) (P31424 21-1203 limits assumed): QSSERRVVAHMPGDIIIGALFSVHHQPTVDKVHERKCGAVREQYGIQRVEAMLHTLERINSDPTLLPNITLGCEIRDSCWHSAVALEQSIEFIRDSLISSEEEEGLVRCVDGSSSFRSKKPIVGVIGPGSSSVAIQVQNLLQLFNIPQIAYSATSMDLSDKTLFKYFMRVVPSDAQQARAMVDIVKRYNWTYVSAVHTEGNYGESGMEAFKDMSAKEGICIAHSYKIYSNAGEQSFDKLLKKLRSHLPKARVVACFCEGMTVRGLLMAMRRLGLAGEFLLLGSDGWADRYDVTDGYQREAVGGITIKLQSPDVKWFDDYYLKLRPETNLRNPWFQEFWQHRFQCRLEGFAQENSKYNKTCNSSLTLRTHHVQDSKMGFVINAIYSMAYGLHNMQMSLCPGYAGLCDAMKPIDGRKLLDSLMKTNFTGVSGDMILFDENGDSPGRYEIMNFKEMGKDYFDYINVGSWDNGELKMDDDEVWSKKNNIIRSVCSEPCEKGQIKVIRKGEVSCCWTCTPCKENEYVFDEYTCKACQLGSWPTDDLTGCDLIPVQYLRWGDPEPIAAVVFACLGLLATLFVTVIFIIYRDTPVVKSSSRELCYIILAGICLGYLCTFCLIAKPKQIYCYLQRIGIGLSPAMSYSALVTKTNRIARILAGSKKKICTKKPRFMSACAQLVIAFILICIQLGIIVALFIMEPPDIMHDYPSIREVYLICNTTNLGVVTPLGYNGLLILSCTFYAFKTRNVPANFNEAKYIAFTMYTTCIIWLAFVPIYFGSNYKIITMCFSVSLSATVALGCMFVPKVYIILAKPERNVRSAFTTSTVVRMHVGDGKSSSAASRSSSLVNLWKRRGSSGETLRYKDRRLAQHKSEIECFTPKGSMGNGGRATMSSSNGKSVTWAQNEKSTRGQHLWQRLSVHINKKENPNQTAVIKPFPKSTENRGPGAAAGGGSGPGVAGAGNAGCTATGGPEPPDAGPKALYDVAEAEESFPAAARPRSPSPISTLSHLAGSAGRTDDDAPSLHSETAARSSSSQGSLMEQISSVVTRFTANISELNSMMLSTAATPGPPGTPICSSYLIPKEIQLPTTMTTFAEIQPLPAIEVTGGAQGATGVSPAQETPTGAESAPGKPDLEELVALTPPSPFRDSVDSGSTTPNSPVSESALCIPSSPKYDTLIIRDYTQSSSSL

| SMILES | Ki [1] [nM] | also measured |
| --- | --- | --- |
| FCCCOCO/N=C1/C=C(C#Cc2ccccn2)CCC1 | 5.42 |  |
| FCCOCO/N=C1/C=C(C#Cc2ccccn2)CCC1 | 8.41 |  |
| N#Cc1ccc(O/N=C2\C=C(C#Cc3ccccn3)CCC2)cc1F | 49.8 |  |
| N#Cc1ccc(F)cc1O/N=C1/C=C(C#Cc2ccccn2)CCC1 | 73.4 |  |
| Cc1cccc(C#CC2=C/C(=N/OCCOCCF)CCC2)n1 | 26.8 | logP at 0.25 h [2]: 2.1 |
| Cc1cccc(C#CC2=C/C(=N/Oc3cccc(F)n3)CCC2)n1 | 46.8 |  |
| [18F]CCOCCO/N=C1/C=C(C#Cc2ccccn2)CCC1 |  | Kd [3]: 0.6 nM; Kd [4]: 13.7 nM |
| FCCOCCO/N=C1/C=C(C#Cc2ccccn2)CCC1 | 3.8 | Bmax [5]: 470 fmol; logP at 0.25 h [2]: 1.7; Bmax [6]: 4 pmol |
| N#Cc1ccc(O/N=C2/C=C(C#Cc3ccccn3)CCC2)cc1F | 56.1 |  |
| CO/N=C1/C=C(C#Cc2cccc(C)n2)CCC1 | 4.4 | logP at 0.25 h [2]: 2.4 |
| Fc1cccc(O/N=C2\C=C(C#Cc3ccccn3)CCC2)n1 | 44 |  |
| CO/N=C1/C=C(C#Cc2cccnc2)CCC1 | 252 |  |
| CO/N=C1/C=C(C#Cc2ccccn2)CCC1 | 2.2 |  |
| Fc1cccc(O/N=C2/C=C(C#Cc3ccccn3)CCC2)n1 | 9.15 |  |
| Fc1cccnc1O/N=C1/C=C(C#Cc2ccccn2)CCC1 | 4.01 |  |
| CO/N=C1/C=C(C#Cc2ccncc2)CCC1 | 54.8 |  |
